Series [1] relates to apoB mRNA editing. As to conditions: for apoB mRNA editing, Mean ± SEM: 6 hours; for apoB mRNA editing (increased from 66%): about 10 times the IC50 for PP1 (cantharidin 4.7 μM). As for the experimental part:
Protein phosphatase inhibitor studies. […] The compounds' effects on apoB mRNA editing were evaluated by RT-PCR and poisoned-primer extension analysis (Sowden et al. Rna 2:274-88 (1996)). The effect of 470 nM cantharidin on ACF subcellular distribution was investigated by treating primary hepatocyte cultures for 6 hours followed by nuclear and cytoplasmic extract preparation.
It was reasoned that if phosphorylation of ACF regulated editing activity, treatment of rat primary hepatocytes with phosphatase inhibitors might stimulate apoB mRNA editing activity. […] The experiments (n=4-6) were done over a number of months and therefore represent primary hepatocytes from several rats.
Editing activity was quantified from primary hepatocytes incubated with 10-100-times the EC50 of the various […] (Calbiochem).

The test system of series [2] is ACF. The experiment in a line: ACF phosphorylation in 32P-labeled rat primary hepatocytes (ACF immunoprecipitation, autoradiography). In kind it is cell-based. The procedure:
In vivo phosphorylation of ACF. In vivo ^32P labeling was performed by intraperitoneal injection of rats with 12.5 mCi of orthophosphoric acid (10 mCi/ml ^32PO4; NEN, Boston, Mass.) buffered with 50 mM HEPES, pH 7.0 and 150 mM NaCl. After 4 hours, rats were sacrificed and hepatic cytoplasmic and nuclear extracts prepared. Primary hepatocyte cultures in 60 mm dishes were incubated in phosphate-free Minimum Essential Eagle Media (Sigma) containing 0.1 nM porcine insulin for 6 hours and subsequently in fresh media containing 10 nM insulin (equivalent to that seen in post-prandial serum) or 0.45% to 0.9% ethanol (AAPER Alcohol and Chemical Co., Shelbyville, Ky.) (Van Mater et al. (1998), Yang et al. (2000)) plus 2.0 mCi orthophosphoric acid. Cultures were labeled for 4 hours prior to extract preparation.
To evaluate the effect of phosphatase inhibition on ACF phosphorylation, cultures were pre-incubated for 2 hours with 470 nM cantharadin in phosphate-free Waymouth's media and subsequently supplemented with 0.5 mCi ^32pO4 and incubated for an additional 4 hours. Cultures were harvested and subcellular extracts prepared.
Immunological techniques. […] For immunoprecipitation analyses all radiolabeled extracts were adjusted to 5 mM MgCl2 and digested with 100 units of DNase I (Promega), RNase T1 (Roche, Ind.), and RNase A (Sigma) for 1 hour on ice to remove radiolabeled nucleic acid. Where applicable, extracts were incubated overnight with ACF CT antibody at 4° C. and subsequently reacted with Protein A-agarose (Oncogene Research Products, Boston, Mass.) pre-washed with 1×TBS/10 mM NaF. The immuno-absorbed material was washed 3 times with 1×TBS/10 mM NaF, 3 times with 1×TBS/1 M NaCl (Yang et al. (1997)) and lastly 3 times with 1×TBS. Immuno-absorbed material to be treated with alkaline phosphatase was washed with 50 mM Tris, pH 8.4, 1 mM MgCl2, 0.1 mM ZnCl2, 25% glycerol and then incubated with 5 U CIAP for 1 hour at 30° C. and then washed 6 times with 1×TBS. ACF-antibody complexes were eluted with 3 M sodium thiocyanate, acetone precipitated and analyzed by 10.5% SDS-PAGE followed by autoradiography and/or western blotting with ACF NT antibody. For ACF immunoprecipitation from gradient fractions an equal volume of pooled gradient fractions from sedimentation zones of interest were reacted with sub-saturating amounts of ACF CT antibody to ensure that the recovery of phospho-ACF was not simply a reflection of ACF abundance in each zone.
To evaluate this, cytoplasmic and nuclear extracts from radiolabeled primary hepatocyte cultures were sedimented through 10%-50% glycerol gradients. […] The ACF immunoprecipitates were resolved by SDS-PAGE, transferred to nitrocellulose, autoradiographed and subjected to phosphorimager scanning to detect and quantify radiolabeled proteins prior to immunoblotting with the ACF NT antibody.

A further series relates to apoB protein. Put plainly: intracellular and secreted apoB protein in primary hepatocytes (radioimmunoassay). In kind it is cell-based, rat. As for the experimental part: The effect of Cantharidin on the abundance of intracellular and secreted apoB protein was also evaluated. Primary hepatocyte cultures were treated with Cantharidin at the IC50 of PP1 and 10-times higher (n=5 for each condition). Intracellular apoB protein in hepatocyte cytoplasmic extracts and apoB protein secreted into the media as VLDL was quantified as ng apoB protein per mg total protein in the Sparks' lab by radioimmunoassay using a monoclonal antibody against apoB as described previously (Chirieac et al. (2000), Au et al. (2004), Sparks, J D and Sparks, C E J Biol Chem 265:8854-62 (1990)) (FIG. 13). For these experiments, insulin was withdrawn from control and Cantharidin-treated cultures 24 hours prior to the addition of Cantharidin in order to isolate the effect of PP 1 inhibition in the absence of insulin stimulated kinase activity.
If alterations in ACF phosphorylation are consequently to ApoB metabolism, then intracellular ApoB protein abundance should be responsive to inhibition of PP1. This was evaluated in treated primary hepatocytes by quantifying ApoB protein in hepatocyte cytoplasmic extracts and secreted into the media as VLDL using ApoB radioimmunoassay and expressed as ng ApoB protein per mg total protein (FIG. 13). For these experiments insulin was withdrawn from control and cantharidin-treated cultures 24 hours prior to the addition of cantharidin in order to isolate the effect of PP I inhibition in the absence of insulin stimulated kinase activity. […] This is the same dose response that was reported for maximal phospho-ACF recovery Mehta, A. et al (2002)).

Series [3] concerns ACF.
For the next series, the system named is PP1. As to conditions: cited from earlier work.
Another series relates to PP2A. As to conditions: cited from earlier work.
The subject of a further series is AC. The conditions noted are these: cited from earlier work.
In series [4] the test system is apoB mRNA editing. Put plainly: apoB mRNA editing in McArdle cells (ethanol, ACF wild type, mutants and isoforms). In kind it is cell-based, rat. As to conditions: wild type McArdle cells, ethanol 4 hours. As for the experimental part: McArdle RH7777 cells (ATCC Manassas, Va.) stably expressing HA epitope-tagged APOBEC-1 (Yang et al. J Biol Chem 272:27700-6 (1997)) were treated for 4 hours with 0.9% ethanol and fractionated into nuclear extracts (Van Mater et al. (1998)).
To calibrate the system cells were incubated in the presence of ethanol for 4 hours and the amount of edited apoB mRNA determined.
The overall expression and subcellular localization of epitope tagged ACF isoforms is established by western blotting of nuclear and cytoplasmic extracts (prepared using NE-PER system; Pierce). These biochemical studies are complemented by immunofluorescence microscopy of paraformaldehyde fixed cells reacted with epitope tag or ACF isoform-specific antibodies. In pilot experiments varying levels of HA-tagged ACF43 and ACF45 were expressed by transfecting differing amounts of cDNA into McArdle or McAPOBEC cells (FIGS. 35A & C, western blots). […] ACF expression levels, subcellular localization and editing activity are determined from replicate experiments and the relative affects of overexpressing each isoform compared in the absence (negative control) or presence of ethanol and to the response seen in wild type cells (positive control).

The mark [5] stands for this setting: 0.5 μM (IC50 of PP1), insulin withdrawn 24 hours before.
The mark [6] stands for this setting: activation of cAMP dependent kinases.

Like-named read-outs stand apart in the source and are kept apart here.

In the case of `C[C@@]12C(=O)OC(=O)[C@]1(C)[C@H]1CC[C@@H]2O1` [Cantharidin], the “apoB mRNA editing, Mean ± SEM” value with apoB mRNA editing [1] (4.7 nM) is recorded as 62 ± 2%; in the series with apoB mRNA editing [1] (47 nM), 64 ± 1%; in the series with apoB mRNA editing [1] (470 nM), 75 ± 1%; with apoB mRNA editing [1] (4.7 μM), 91 ± 1%. Also, the “effect on apoB mRNA editing” value with apoB mRNA editing [1] (470 nM, the IC50 for PP1) was “reproducible, but not statistically significant increase in editing”; in the series with apoB mRNA editing [1] (concentration not given), “stimulated apoB mRNA editing”. Besides, the “apoB mRNA editing (increased from 66%)” value in the series on apoB mRNA editing [1] is given as greater than 90%. Besides, in the series with ACF [2] (470 nM), the ACF phosphorylation result is on record as “increased”. Moreover, in the series on apoB protein (setting [5]), the “reduction in intracellular (cell) apoB relative to untreated hepatocytes” value is recorded as 22%. For the same compound, the “reduction in secreted (media) apoB relative to untreated hepatocytes” value in the series with apoB protein (setting [5]) was determined as 17%. The “reduction in secreted apoB” value in the series on apoB protein (5 μM) was no less than 30%. For the same compound, the “reduction in intracellular apoB” value with apoB protein (5 μM (10-times the IC50)) is reported as no less than 60%. In addition, the “nuclear ACF (control nuclear to cytoplasmic 1:1)” value in the series on ACF [3] (470 nM, 4 hours) was “five-fold increase in nuclear ACF”. The “nuclear ACF compared to untreated control hepatocytes” value in the series with ACF [3] (0.5 μM (IC50 of PP1)) is “marked increase in nuclear ACF”. The IC50 (in general, the point on the concentration scale where inhibition reaches its midpoint) in the series with PP1 was 473 nM; in the series on PP1 (listed as cantharidin), 470 nM; in the series on PP2A, 40 nM; in the series on PP2A (listed as cantharidin), 47 nM.
On to `CC1(C)C(C=C(Cl)Cl)C1C(=O)OC(C#N)c1cccc(Oc2ccccc2)c1` (centres unmarked) [Cypermethrin], for which the figures for the “apoB mRNA editing, Mean ± SEM” value with apoB mRNA editing [1] (50 pM) and in the series on apoB mRNA editing [1] (5 nM) were 69 ± 4% and 66 ± 4%, respectively. Besides, in the series on apoB mRNA editing [1] (concentration not given), the “effect on apoB mRNA editing” value was “did not affect significantly apoB mRNA editing”.
Regarding `O=C(O)[C@@H]1[C@H](C(=O)O)[C@H]2CC[C@@H]1O2` [Endothall], the “apoB mRNA editing, Mean ± SEM” value with apoB mRNA editing [1] (100 nM) was determined as 66 ± 2%; in the series on apoB mRNA editing [1] (500 nM) it was 65 ± 2%; with apoB mRNA editing [1] (5 μM) it was 64 ± 3%; with apoB mRNA editing [1] (50 μM), 83 ± 2%. Also, in the series on apoB mRNA editing [1] (10-times the IC50 for PP1), the “effect on apoB mRNA editing” value is reported as “stimulated editing to statistically significant levels”.
`C=C[C@@]1(C)CC(=O)[C@]2(O)[C@@]3(C)[C@@H](O)CCC(C)(C)[C@@H]3[C@H](O)[C@H](OC(C)=O)[C@@]2(C)O1` [Forskolin]: the “apoB mRNA editing, Mean” value in the series on apoB mRNA editing [1] (4 μM) stood at 70.6%; with apoB mRNA editing [1] (40 μM) it was 68.5%; with apoB mRNA editing [1] (120 μM), 69%.
For the compound `O=S(=O)(NCCNC/C=C/c1ccc(Br)cc1)c1cccc2cnccc12` [H89], the “effect on editing in hepatocytes” value in the series with apoB mRNA editing [1] is listed as “stimulated”.
Regarding `CC(C)NCC(O)c1ccc(O)c(O)c1` (centres unmarked) [Isoproterenol], the EC50 (as a rule, the concentration needed to bring the measured effect to its halfway point) was 50000 nM with AC (setting [6]) and 1 to 100000 nM in the series on AC (range printed with mixed units).
For the compound `COc1ccc(S(=O)(=O)N(CCO)c2ccccc2CN(C)C/C=C/c2ccc(Cl)cc2)cc1` [KN93], in the series on apoB mRNA editing [1], the “effect on editing in hepatocytes” value is given as “stimulated”.
Consider `O=S(=O)(c1cccc2c(I)cccc12)N1CCCNCC1` [ML-7], for which the “effect on editing in hepatocytes” value in the series with apoB mRNA editing [1] was “did not affect editing”.
`C=C1[C@@H](O)[C@@H]2O[C@]3(CC[C@H](/C=C/[C@@H](C)[C@@H]4CC(C)=C[C@@]5(O[C@H](C[C@@](C)(O)C(=O)O)CC[C@H]5O)O4)O3)CC[C@H]2O[C@@H]1[C@@H](O)C[C@H](C)[C@H]1O[C@@]2(CCCCO2)CC[C@H]1C` [Okadaic acid]: the “apoB mRNA editing, Mean ± SEM” value was 72 ± 4% in the series on apoB mRNA editing [1] (1 nM), 74 ± 4% in the series with apoB mRNA editing [1] (10 nM) and 91 ± 2% with apoB mRNA editing [1] (100 nM). Also, in the series with apoB mRNA editing [1], the “apoB mRNA editing (increased from 66%)” value is listed as “greater than 90%”. The “effect on apoB mRNA editing” value in the series on apoB mRNA editing [1] (concentration not given) is listed as “stimulated”.
For the compound `COc1cccc(-c2cc(=O)c3ccccc3o2)c1N` [PD98059], the “effect on editing in hepatocytes” value in the series on apoB mRNA editing [1] is listed as “did not affect editing”.
For the compound `CCCCCCCCCCCCCC(=O)O[C@@H]1[C@@H](C)[C@@]2(O)[C@@H](C=C(CO)C[C@]3(O)C(=O)C(C)=C[C@@H]23)[C@@H]2C(C)(C)[C@]12OC(C)=O` [PMA], the “apoB mRNA editing, Mean” value with apoB mRNA editing [1] (500 nM) was 68.8%; in the series on apoB mRNA editing [1] (5 μM), 64.9%; with apoB mRNA editing [1] (50 μM) it was 63%.
Consider `CCO` [ethanol], for which the “editing in metabolic state of rat hepatocytes (model, basal ~65%)” value in the series with apoB mRNA editing [1] is on record as roughly 95%. For the same compound, the “increase of phosphoACF in nuclear 27S editosomes” value with ACF [2] (0.45% ethanol, 4 hours) is given as 3.5 fold. In addition, the “increase of phosphoserine in immunopurified ACF” value with ACF [2] (0.9% ethanol during the labeling period) came out at 1.5 fold. Further, in the series with apoB mRNA editing [4], the “increase in editing activity” value is reported as 52% and the “percent editing (from 21%)” value came out at 32%.
Take Glucagon: the results for the “apoB mRNA editing, Mean” value in the series with apoB mRNA editing [1] (1 nM), with apoB mRNA editing [1] (10 nM) and in the series with apoB mRNA editing [1] (100 nM) were 62.2%, 59.5% and 58.3%, respectively. Moreover, the EC50 with AC (setting [6]) is 0.1 to 100 nM; in the series on AC (activation of cAMP dependent kinases, listed as glucagon), 50 nM.

The values are drawn from patent US20090075925A1, “Methods and Compositions Related to APOBEC-1 Expression” (priority 2006, published 2009).
